From patent publication US6900198B2, “Synthetic catalytic free radical scavengers useful as antioxidants for prevention and therapy of disease” (Eukarion, Inc., priority 1995, dated 2005)

What was measured:
[1] = test system: Rat brain slices; assay: Rat brain slice ischemia EPSP system; format: cell-based; details: 50 μM; untreated slices recovered only about 40%
Procedure: A widely used assay to determine the therapeutic potential of molecules in brain ischemia (stroke) consists of evaluating their ability to prevent irreversible damage induced by an anoxic episode in brain slices maintained under physiological conditions. Rat brain slices were maintained at 35° C. in an interface chamber in an artificial cerebrospinal fluid containing: 124 mM NaCl, 3 mM KCl, 1.25 mM KH2PO4, 3 mM CaCl, 1 mM MgCl2, 26 mM NaHCO3, 10 mM D-glucose, and 2 mM L-ascorbate, continuously gassed with a mixture of O2:CO2 (95:5). The atmosphere of the chamber was also continuously gased with the mixture of O2:CO2 (95:5), except during the anoxic episode when it was replaced by N2. Axons were electrically stimulated and the evoked excitatory post-synaptic potentials (EPSPs) were recorded using microelectrodes.
The extent of permanent damage can be quantified by measuring both the amplitude (in mV) and the initial slope (in mV/msec) of the EPSP.
After 5 minutes of baseline recording, O2 was replaced by N2 for an average of 5 minutes. O2 was then reintroduced and recording was continued for another 50 minutes. […] In contrast, recovery in untreated brain slices was only about 40% of pre-ischemia levels.
As an additional assessment of efficacy, the percentage of viable slices following repeated ischemic episodes was evaluated. […]

[2] = test system: neurons; assay: Amyloid peptide toxicity in neurons in vitro; format: cell-based
[3] = test system: Hippocampal slices; assay: Anoxia in hippocampal slices, EPSP recovery; format: cell-based, Sprague-Dawley rats; details: C7 50 μM
Text: Anoxia in hippocampal slices. […] A glass recording micropipet was positioned in CA1 stratum radiatum to record excitatory postsynaptic potential (EPSPs) generated by electrical stimulation of the Schaffer-commissural pathway by a bipolar stimulation electrode at a frequency of 0.033 Hz. During anoxic episodes, the oxygen supply was replaced with 100% N2 gas. N2 was supplied for 90 seconds following electrical silence after which O2 was reintroduced. Recovery of EPSPs (both slope and amplitude) was recorded for 50 minutes, at which time the final viability of the slices was determined, with viability being defined as the ability of the slice to generate a 3 mV EPSP.

[4] = C7 inactivation in H2O2, HPLC; format: physicochemical
Procedure: Where indicated, 1 mM ABTS was also present. Components were mixed and, after various incubations times, a 30 μl aliquot was injected onto the HPLC. The mixtures were chromatographed on an octadecyl-silica column using a mobile phase consisting of 60% methanol:40% 0.1 M NaCl and a flow rate of 1 ml/min. […] A third component, with a retention time of 4.8 min, was detectable under some conditions; its appearance and disappearance was monitored but it was not further analyzed. In this system, ABTS and its oxidized product had retention times of 3.4 and 3.1-min, respectively, well resolved from the peaks of interest. Absorbance spectra collected during each run allowed the identity of C7 and salicylaldehyde to be verified. All peaks were integrated based upon their absorbance at 240 nm. The results are expressed as the percentage of maximum peak area. […] For the two putative breakdown products, this is equivalent to the largest peak observed during the course of the ˜2000 sec incubation period.

[5] = test system: endotoxin-induced ALI in pigs; assay: Acute lung injury in endotoxemic pigs; format: in vivo; details: treatment begun prior to LPS infusion
Procedure: All pigs were pre-treated at T=−18 h with Escherichia coli 0111:B4 LPS (20 μg/kg). Pigs in the RL group (n=4) received no further treatment. […] Lung wet-to-dry weight ratio was determined post-mortem. Lung lipid peroxidation was estimated fluorometrically by measuring thiobarbituric acid reactive products in the lipid fraction of lung parenchymal tissue harvested at T=300 min.

[6] = test system: dopaminergic neurons in mouse brain; assay: MPTP animal model of Parkinson's disease, mazindol binding
Procedure: This model is now widely accepted in the art and is used for evaluating potential therapeutic agents for this disease.
Tritiated mazindol was used for binding studies on samples of the globus pallidus, caudate nucleus, and striatum of mouse brain according to conventional methods; specific binding of tritiated mazindol was determined autoradiographically or by membrane binding (specific binding to the membrane fraction). The experiment was performed over a 7 day period. Mice in the MPTP group were treated […] with MPTP alone (40 mg/kg each day on days 1 and 2). […] The animals were sacrificed after 7 days.
MPTP in mice. Adult male CFW mice (25-33 g) were administered two injections of MPTP dissolved in normal saline (40 mg/kg, s.c.) 24 hours apart. […] Animals were sacrificed 7 days after the first MPTP injection, and neuronal pathology was assessed by the binding of ^3H-mazindol, a ligand for the dopamine transporter, to […] frozen brain sections or to striatal homogenates.

[7] = cited from earlier work
[8] = test system: SJL female mice; assay: Experimental Autoimmune Encephalitis (EAE); format: in vivo
Text: EAE is an animal model of multiple sclerosis.
Mice in both groups were immunized with an encephalitogenic PLP peptide in complete Freund's adjuvant subcutaneously, followed by Petrussis Toxin (IV). Petrussis toxin was repeated on day 3 post immunization.
Animals were scored as follows:
Stage I: Limp tail syndrome
Stage II: Hind leg paralysis
Stage III: Hind leg paralysis-Dragging movement
Stage IV: Paralytic immobility, weight loss

[9] = test system: acidosis-induced mucosal injury; assay: In vitro model for acidosis-induced mucosal injury
[10] = 100 μM C7, 1 mM H2O2, with 1 mM ABTS

## [Cl][Mn]1[O]c2ccccc2C=NCCN=Cc2ccccc2[O]1 [Compound C7]
[1]
  recovery of EPSP amplitude and slopes after ischemia/reoxygenation: recovered to pre-ischemia levels
[2]
  protection of neurons against amyloid peptide toxicity: protect neurons against amyloid peptide toxicity
[3]
  protection against anoxia-induced decrease in synaptic response in CA1 (EPSP slope and amplitude): significant degree of protection
[4]; 100 μM C7, 1 mM H2O2, pH 8.1, absence of ABTS
  half life of the C7 peak: ~40 s
[4]; [10]
  C7 peak that disappeared rapidly: about 20%
  C7 remaining over the entire ~2000 sec incubation: 80%
[5]
  effect on manifestations of LPS-induced ALI: prevents many of the manifestations of LPS-induced ALI
[6]; C7 33 mg/kg i.p. days 1-3, MPTP 40 mg/kg days 1 and 2, versus MPTP alone
  number of surviving dopaminergic neurons in mice treated with MPTP: approximately doubled
[6]; C7 3×33 mg/kg, i.p., MPTP 2×40 mg/kg, s.c.
  protection against the reduction in 3H-mazindol binding: significant (p<0.05) degree of protection
[6]; C7 3×33 mg/kg, i.p., MPTP 2×40 mg/kg, s.c., panel B
  protection against the reduction in 3H-mazindol binding measured in striatal homogenates: significant protection
[6]; C7 alone, no MPTP
  number of dopaminergic neurons in regions of the mouse brain, compound alone: not adversely affected
[7]
  SOD activity previously found: about 769 units/mM
[8]; fifth week, three weeks after treatment was stopped, group of 10 mice
  mice that developed symptomatic EAE: six
[8]; third week following immunization, 1 mg/mouse daily IP, control 8 of 20
  mice that developed symptomatic EAE: one of 10
[9]
  protection in acidosis-induced mucosal injury: protective
